Laboratory results as given in patent US6787318B1, “Assay for evaluating the therapeutic effectiveness of agents in reducing Alzheimer's disease pathology” (Roskamp Research Institute, LLC, priority 1999, dated 2004).
Entries after “also recorded” stand apart in the source; their conditions may differ.

Tests used:
CD40 [1] = assay: CD40 expression in Aβ-treated N9 and N60 microglial cells, flow cytometry; type: cell-based, murine
From the text: Mononuclear cells from AD patients secrete markedly higher levels of IFN-γ compared to age-matched controls (18).

CD40 [2] = assay: CD40 expression in primary cultured microglia; type: cell-based, mice; conditions: microglia from control littermates exposed to exogenous peptide, vs Aβ40-1 or sAPPα-695
[3] = test system: primary cultured cortical neurons; assay: Primary cultured microglia-mediated neuronal cell injury (micrographs, 51Cr release, LDH release); type: cell-based, mice; conditions: primary cultured microglia with cortical neurons
From the text: CD45 positive cells (brown) are microglia, while neurofilament L-staining cells (red) are neurons. […] Results shown are from one of three independent experiments with similar results; FIG. 2E is a graph showing primary cultured microglia-mediated neuronal cell injury as evidenced by ^51Cr release. Data are reported as mean ^51Cr release values±1 SEM and n=9 for each condition presented. […] N=9 for each condition presented.
Having shown that Aβ peptides activate microglia through the CD40 pathway, it was then investigated whether activation of Aβ-pretreated microglia by ligation of CD40 could mediate neuronal cell injury (23,24).

cortical neurons = assay: Cortical neurons incubated with treated N9 microglia, photomicrographs; type: cell-based, murine; conditions: Aβ1-42 250 nM, CD40L 0.5 μg/ml
IL-1β = assay: Human IL-1β release ELISA, HAEC with or without CD40 ligation; type: cell-based
Experimental: To examine if endothelial CD40 would be functional, cultured HAEC were plated at 5×10^4 cells/well in 6-well tissue culture plates (Nunc-Immuno™ Plate, Denmark) and incubated at 37° C. with human CD40L recombinant protein (CD40L, 0.5 ug/mL, kindly provided by Dr. Jean-Yves Bonnefoy, Glaxo Institute for Molecular Biology, Geneva) in fresh cultured media for eight hours, and cell-free supernatants were collected for IL-1β release assay. The assay for human IL-1β was performed in strict accordance with the manufacturer's instruction using the human Predicta™ IL-1β Kit (Genzyme). Absorbance at 450 nm was measured using a microplate spectrophotometer (SPECTRAmax 250, Molecular Devices, Sunnyvale, Calif.).
A second group of cells was subjected to these same treatments and incubated with CD40L ([…]) for eight hours following the initial 48 hour treatment period. IL-1β release was then quantified using a human IL-1β ELISA kit as described in materials and methods.

IFN-γ = IFN-γ secretion from HAEC, ELISA; type: cell-based, human; conditions: 24 hours
Experimental: The assay for either IL-1β or IFN-γ was performed in strict accordance with the manufacturer's instructions for the respective assay kits.
Activation of CD40 signalling can be achieved by stimulation with either CD40L or certain anti-CD40 mAbs. Since synthetic CD40L is not commercially available, one of the anti-CD40 mAbs (clone 3/23), which has been reported to activate CD40 signalling, was used to mimic the effect of interaction of CD40-CD40L. All Aβ-treated cells were incubated with 1 μg/ml anti-CD40 mAb […]) for four hours followed by CELISA.
The resulting cell culture media were assayed for IL-1β or IFN-γ using ELISA. […] The lowest effective concentration was determined to be 100 nM for IFN-γ ([…]). The lowest effective concentration was determined to be 100 nM for IFN-γ (p<0.01) and 1 μM for IL-1β (p<0.01).

CD40 [4] = assay: CD40 expression in HAEC, cell-ELISA (CELISA); type: cell-based, human
Experimental: In vitro measurement of Aβ-induced changes in expression of the inflammatory cell-surface molecules CD40 and […] in cultured HAEC and HASM cells was performed using a slightly modified ABC-based cell-ELISA (CELISA). […] After PBS washes, 4% neutral formalin solution (Sigma) was used for fixation of the cells. Following quenching of the endogenous peroxidase activity with 3% H2O2 and routine blocking of non-specific binding, the biotinylated specific secondary antibodies against the primary antibodies (goat anti-mouse or anti-rabbit IgG) were applied. The combination of EXTRAVIDIN® Proxidase and the subsequent color reaction was performed strictly according to the manufacturer's instructions in the EXTRAVIDIN® Peroxidase Staining Kit (Sigma). The absorbance of 405 nm was then measured using a microplate reader (SPECTRAmax 250, Molecular Devices). The optical density (O.D.) value for the wells in the absence of the primary antibody for each group was considered as background and subtracted as the blank. In addition, stimulation with IFN-γ for CD40 was included as a positive control in the appropriate plate. Since CD45 is not expressed by endothelial or smooth muscle cells, the assays for expression of CD45 in these Aβ-treated cells were used as negative controls throughout the experiment. In addition, to evaluate the degree of cell death or proliferation in the Aβ-treated, cells, parallel experiments were performed using the MTS (3-(4,5-dimethylthiazol-2-yl)-5-(3-carboxymethoxyphenyl)-2-(4-sulfophenyl)-2H-tetrazolium) cell-proliferation kit (Promega).

## Aβ1-42: amyloid β peptide 1-42, freshly solubilized
CD40 [1]; 250 nM freshly solubilized peptide, N9 and N60 cells, vs control peptide or Aβ-free
  CD40 expression on cultured microglial cells: significantly induce CD40 expression
CD40 [1]; from 50 to 1250 nM, N9 cells
  dose dependence of microglial CD40 expression: induces microglial CD40 expression in a dose-dependent manner; also recorded: induced microglial CD40 expression in a dose dependent manner
CD40 [2]
  CD40 expression in primary cultured microglia: CD40 expression is increased
[3]
  neuronal degeneration / injury in micrographs: not detectable
Cortical neurons
  change in cortical neurons: no change in cortical neurons
IL-1β; 48 hour pre-treatment, then CD40L for eight hours
  IL-1β release following CD40 ligation: synergistic effect
IL-1β; Aβ 500 nM, IFN-γ 10 U/mL, 48 hours
  IL-1β release in the absence of CD40L stimulation: not sufficient to elicit IL-1β
IFN-γ
  lowest effective concentration for IFN-γ secretion: 100 nM
IFN-γ; increasing concentrations
  IFN-γ secretion, dose dependence: increases the secretion of IL-1β and IFN-γ in a dose-dependent manner
CD40 [4]
  CD40 expression in HAEC, dose dependence: dose-dependently increase CD40 expression
CD40 [4]; HAEC
  lowest effective concentration for CD40 expression: 100 nM
